| melting point [°C] | Structure (SMILES) |
| --- | --- |
| 208 to 209 | CCCCCSc1nc2ncsc2c(=O)[nH]1 [Example 8, 5-(Pentylthio)thiazolo[4,5-d]pyrimidin-7(4H)-one] |
| 197 to 198 | O=c1[nH]c(SCc2cccc(Oc3ccccc3)c2)nc2ncsc12 [Example 4, 5-[[(3-Phenoxyphenyl)methyl]thio]thiazolo[4,5-d]pyrimidin-7(4H)-one] |
| 111 to 114 | CC[C@@H](CO)Nc1nc(SCc2cccc(Oc3ccccc3)c2)nc2nc(N)sc12 [Example 112, (2S)-2-[[2-Amino-5-[[(3-phenoxyphenyl)methyl]thio]thiazolo[4,5-d]pyrimidin-7-yl]amino]-1-butanol] |
| 192 to 195 | CCCCCSc1nc(NCCO)c2sc(N)nc2n1 [Example 7, 2-[[2-Amino-5-(pentylthio)thiazolo[4,5-d]pyrimidin-7-yl]amino]ethanol] |
| 126 to 130 | CC(C)(CO)Nc1nc(SCc2cccc(Oc3ccccc3)c2)nc2nc(N)sc12 [Example 115, 2-[[2-Amino-5-[[(3-phenoxyphenyl)methyl]thio]thiazolo[4,5-d]pyrimidin-7-yl]amino]-2-methyl-1-propanol] |
| 266 to 269 | Nc1nc2nc(SCc3cccc(Oc4ccccc4)c3)[nH]c(=O)c2s1 [Example 5, 2-Amino-5-[[(3-phenoxyphenyl)methyl]thio]thiazolo[4,5-d]pyrimidin-7(4H)-one] |

Second part, the compound before the results:

| Structure (SMILES) | melting point [°C] |
| --- | --- |
| CCCCCSc1nc2nc(Br)sc2c(=O)[nH]1 [Example 11, 2-Bromo-5-(pentylthio)thiazolo[4,5-d]pyrimidin-7(4H)-one] | 189 to 191 |
| CC[C@H](CO)Nc1nc(SCc2cccc(Oc3ccccc3)c2)nc2nc(N)sc12 [Example 111, (2R)-2-[[2-Amino-5-[[(3-phenoxyphenyl)methyl]thio]thiazolo[4,5-d]pyrimidin-7-yl]amino]-1-butanol] | 108 to 111 |
| Nc1nc2nc(SCc3cccc(Oc4ccccc4)c3)nc(NC(CO)CO)c2s1 [Example 114, 2-[[2-Amino-5-[[(3-phenoxyphenyl)methyl]thio]thiazolo[4,5-d]pyrimidin-7-yl]amino]-1,3-propanediol] | 220 to 222 |
| CCCCCSc1nc(NC(CC)CO)c2sc(N)nc2n1 (racemic) [Example 6, (±)-2-[[2-Amino-5-(pentylthio)thiazolo[4,5-d]pyrimidin-7-yl]amino]-1-butanol] | 151 to 154 |

Source: US6806273B1, “Compounds” (AstraZeneca AB, priority 1998, dated 2004)
